Patent publication US10314307B2, “(S)-abscisic acid derivatives for improving plant stress tolerance” (Valent BioSciences Corporation, priority 2015, dated 2019)

Tests used:
Assay type in all cases: in vivo
[1] = test system: Cucumber plants cv. ‘Straight Eight’; experiment: Cucumber seedling chilling; set-up: key to New Growth Rating: 0 = No new growth; 1 = some new growth; 2 = new leaves; conditions: for New Growth Rating / Percent Leaf Area Affected: foliar spray 100 mg/liter, 300 ug/plant, 96 hours at 4° C., rated after 48 hours recovery
Method: In these studies, 3′-methyl-(S)-abscisic acid was compared with (S)-abscisic acid on cucumber seedlings for prevention of chilling damage. Cucumber plants cv. ‘Straight Eight’ were grown for two weeks at 25° C. and were size matched into groups of three plants. Each group was sprayed with water+0.05% non-ionic surfactant (control), 100 ppm 3′-methyl-(S)-abscisic acid and surfactant, or 100 ppm S-ABA and surfactant until wet, respectively. For the spray solutions, 3′-methyl-(S)-abscisic acid was dissolved in 0.5% by volume DMSO in water. Following the foliar treatment, plants were held for 48 hours at room temperature, then subjected to 4° C. for 96 hours, and then returned to 25° C. After the plants had been allowed to recover from the chilling treatments for 48 hours, the plants were rated for percent leaf area affected and new growth.

[2] = test system: Tobacco plants cv. Xanthi-nc; experiment: Tobacco plants drought assay; conditions: for Percent of plants recovered 3 days after re-watering: re-watered after 18 days of water withdrawal
Method: Tobacco plants cv. Xanthi-nc were grown for six weeks at 25° C. and were size matched into groups of four. Each plant group was drench-treated with 10 mL of water containing 0.5% DMSO (control), 0.3 mg, 1.0 mg or 3.0 mg/plant 3′-methyl-(S)-abscisic acid, or 0.3 mg, 1.0 mg or 3.0 mg/plant S-ABA, respectively. The plants were kept in the greenhouse and not watered, simulating drought conditions. After 18 days of water withdrawal, the plants in all treatment groups wilted. At that point, all the plants were watered again. The number of plants that wilted during each day of water withdrawal and the number of plants that recovered following the re-watering were recorded.

[3] = test system: corn seed of a common inbred parental line; experiment: Corn plant emergence after seed treatment; conditions: for Delay in Median Emergence Time Compared to Control / Median Time to Emergence: 20.5° C.; for Additional delay in emergence in comparison with S-ABA: 80 μg/seed rate; for Relative potency of S-ABA, dose required to delay the median emergence time by two days: regression
Method: Corn seed of a common inbred parental line were treated using standard seed treatment equipment with water (control), 40 μg, 80 μg or 160 μg/seed S-ABA, 10 μg, 20 μg, 40 μg or 80 μg/seed 3′-methyl-(S)-abscisic acid, or 10 μg, 20 μg, 40 μg or 80 μg/seed 3′-propargyl-(S)-abscisic acid. Post treatment, the seeds were planted in 12×3×2″ plastic boxes containing one kilogram of sieved, pre-moistened field soil. Fifty seeds were planted in each box at three centimeter depth and two replicate boxes per treatment at 20.5° C. under constant illumination. Two replications of the experiment were incubated under constant light in a 20.5° C. growth chamber. Emergence counts were recorded almost daily until seedling emergence had ceased (42 days). Daily counts were converted to proportions of the final emergence to estimate the median emergence time for each box.

crop plants = experiment: Mitigation of drought and chilling stress on crop plants (summary statement)

| SMILES | New Growth Rating [1] | Percent Leaf Area Affected [1] | Percent of non-wilted plans on days after drench treatment and drought initiation, Day 8 ([2]; 0.3 mg/plant drench) | Percent of non-wilted plans on days after drench treatment and drought initiation, Day 10 ([2]; 0.3 mg/plant drench) | Percent of non-wilted plans on days after drench treatment and drought initiation, Day 12 ([2]; 0.3 mg/plant drench) | Percent of non-wilted plans on days after drench treatment and drought initiation, Day 14 ([2]; 0.3 mg/plant drench) | Percent of non-wilted plans on days after drench treatment and drought initiation, Day 16 ([2]; 0.3 mg/plant drench) | Percent of non-wilted plans on days after drench treatment and drought initiation, Day 18 ([2]; 0.3 mg/plant drench) | Percent of plants recovered 3 days after re-watering ([2]; 0.3 mg/plant drench) | Percent of non-wilted plans on days after drench treatment and drought initiation, Day 8 ([2]; 1 mg/plant drench) | Percent of non-wilted plans on days after drench treatment and drought initiation, Day 10 ([2]; 1 mg/plant drench) | Percent of non-wilted plans on days after drench treatment and drought initiation, Day 12 ([2]; 1 mg/plant drench) | Percent of non-wilted plans on days after drench treatment and drought initiation, Day 14 ([2]; 1 mg/plant drench) | Percent of non-wilted plans on days after drench treatment and drought initiation, Day 16 ([2]; 1 mg/plant drench) | Percent of non-wilted plans on days after drench treatment and drought initiation, Day 18 ([2]; 1 mg/plant drench) | Percent of plants recovered 3 days after re-watering ([2]; 1 mg/plant drench) | Delay in Median Emergence Time Compared to Control ([3]; seed treatment 40 μg/seed) | Median Time to Emergence ([3]; seed treatment 40 μg/seed) | Delay in Median Emergence Time Compared to Control ([3]; seed treatment 80 μg/seed) | Median Time to Emergence ([3]; seed treatment 80 μg/seed) | further results |
| --- | --- | --- | --- | --- | --- | --- | --- | --- | --- | --- | --- | --- | --- | --- | --- | --- | --- | --- | --- | --- | --- |
| CC1=CC(=O)CC(C)(C)[C@@]1(O)/C=C/C(C)=C/C(=O)O [S-ABA, (S)-abscisic acid] | 1 | 33.33% | 100% | 100% | 17% | 0% | 0% | 0% | 0% | 100% | 100% | 50% | 0% | 0% | 0% | 0% | 5.6 days | 10.5 days | 8.2 days | 13.0 days | Percent of non-wilted plans on days after drench treatment and drought initiation, Day 8 ([2]; 3 mg/plant drench): 100%; Percent of non-wilted plans on days after drench treatment and drought initiation, Day 10 ([2]; 3 mg/plant drench): 100%; Percent of non-wilted plans on days after drench treatment and drought initiation, Day 12 ([2]; 3 mg/plant drench): 67%; Percent of non-wilted plans on days after drench treatment and drought initiation, Day 14 ([2]; 3 mg/plant drench): 0%; Percent of non-wilted plans on days after drench treatment and drought initiation, Day 16 ([2]; 3 mg/plant drench): 0%; Percent of non-wilted plans on days after drench treatment and drought initiation, Day 18 ([2]; 3 mg/plant drench): 0%; Percent of plants recovered 3 days after re-watering ([2]; 3 mg/plant drench): 0%; Plants recovered once they were watered ([2]; all S-ABA doses (0.3, 1.0, 3.0 mg/plant)): none; Delay in Median Emergence Time Compared to Control ([3]; seed treatment 160 μg/seed): 9.7 days; Median Time to Emergence ([3]; seed treatment 160 μg/seed): 14.6 days |
| CC1=C(C)[C@](O)(/C=C/C(C)=C\C(=O)O)C(C)(C)CC1=O [3′-methyl-(S)-ABA, (2Z,4E)-5-((S)-1-hydroxy-2,3,6,6-tetramethyl-4-oxocyclohex-2-en-1-yl)-3-methylpenta-2,4-dienoic acid] | 2 | 16.67% | 100% | 100% | 83% | 33% | 0% | 0% | 0% | 100% | 100% | 100% | 83% | 67% | 0% | 33% | 11.1 days | 16.0 days | 13.8 days | 18.6 days | Mitigating chilling damage compared with S-ABA ([1]; 100 ppm foliar spray, chilling at 4° C.): more effective than S-ABA; Percent of non-wilted plans on days after drench treatment and drought initiation, Day 8 ([2]; 3 mg/plant drench): 100%; Percent of non-wilted plans on days after drench treatment and drought initiation, Day 10 ([2]; 3 mg/plant drench): 100%; Percent of non-wilted plans on days after drench treatment and drought initiation, Day 12 ([2]; 3 mg/plant drench): 100%; Percent of non-wilted plans on days after drench treatment and drought initiation, Day 14 ([2]; 3 mg/plant drench): 100%; Percent of non-wilted plans on days after drench treatment and drought initiation, Day 16 ([2]; 3 mg/plant drench): 83%; Percent of non-wilted plans on days after drench treatment and drought initiation, Day 18 ([2]; 3 mg/plant drench): 0%; Percent of plants recovered 3 days after re-watering ([2]; 3 mg/plant drench): 83%; Percent of plants recovered 3 days after re-watering ([2]; 3 mg/plant drench, listed as 3′-methyl-(S)-abscisic acid): 83%; Drought tolerance compared to the untreated control or the highest amount (3.0 mg) of S-ABA ([2]; lowest amount (0.3 mg)): superior drought tolerance; Additional delay in emergence in comparison with S-ABA [3]: 5.6 calendar days; Relative potency of S-ABA, dose required to delay the median emergence time by two days [3]: 2.2 times; Delay in Median Emergence Time Compared to Control ([3]; seed treatment 10 μg/seed): 4.9 days; Median Time to Emergence ([3]; seed treatment 10 μg/seed): 9.7 days; Delay in Median Emergence Time Compared to Control ([3]; seed treatment 20 μg/seed): 7.9 days; Median Time to Emergence ([3]; seed treatment 20 μg/seed): 12.7 days; Effectiveness relative to S-ABA when applied to crop plants to mitigate drought and chilling stress (crop plants): from about two to about ten times as effective as S-ABA |
| C#CCC1=C(C)[C@](O)(/C=C/C(C)=C\C(=O)O)C(C)(C)CC1=O [3′-propargyl-(S)-ABA, (2Z,4E)-5-((S)-1-hydroxy-2,6,6-trimethyl-4-oxo-3-(prop-2-yn-1-yl)cyclohex-2-en-1-yl)-3-methylpenta-2,4-dienoic acid] | – | – | – | – | – | – | – | – | – | – | – | – | – | – | – | – | 16.2 days | 21.0 days | 22.4 days | 27.3 days | Additional delay in emergence in comparison with S-ABA [3]: 14.3 calendar days; Relative potency of S-ABA, dose required to delay the median emergence time by two days [3]: 2.6 times; Delay in Median Emergence Time Compared to Control ([3]; seed treatment 10 μg/seed): 8.6 days; Median Time to Emergence ([3]; seed treatment 10 μg/seed): 13.4 days; Delay in Median Emergence Time Compared to Control ([3]; seed treatment 20 μg/seed): 11.3 days; Median Time to Emergence ([3]; seed treatment 20 μg/seed): 16.2 days |
